Source: patent publication US20230219904A1 (SYNGENTA CROP PROTECTION AG, priority 2020, published 2023)

Columns and labels:
Assay type in all cases: in vivo
Details in all cases: evaluated after 13 days
[1] = tested on: Amaranthus retoflexus (AMARE); experiment: Pre-emergence herbicidal glasshouse test (Table B1)
In short: (§1)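 Pre: spray 1 d after sowing; post: spray after 8 d growth. Rate 500 g/h (default); vehicle acetone/water 50:50, 0.5% Tween 20. Glasshouse 24/16° C, 14 h light, 65% humidity. Readout % damage at 13 d, 5-point scale.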

[2] = tested on: Setaria faberi (SETFA); experiment: as above
In short: as §1

[3] = tested on: Echinochloa crus-galh (ECHCG); experiment: as above
In short: as §1

[4] = tested on: Abutilon theophrasti (ABUTH); experiment: as above
In short: as §1

[5] = tested on: Ipomoea hederacea (IPOHE); experiment: as above
In short: as §1

[6] = tested on: Amaranthus retoflexus (AMARE); experiment: Post-emergence herbicidal glasshouse test (Table B1)
In short: as §1

[7] = tested on: Setaria faberi (SETFA); experiment: as above
In short: as §1

[8] = tested on: Echinochloa crus-galh (ECHCG); experiment: as above
In short: as §1

[9] = tested on: Abutilon theophrasti (ABUTH); experiment: as above
In short: as §1

[10] = tested on: Ipomoea hederacea (IPOHE); experiment: as above
In short: as §1

Compound | PRE Application AMARE, percentage damage on five-point scale ([1]; applied at 500 g/h) | PRE Application SETFA, percentage damage on five-point scale ([2]; applied at 500 g/h) | PRE Application ECHCG, percentage damage on five-point scale ([3]; applied at 500 g/h) | PRE Application ABUTH, percentage damage on five-point scale ([4]; applied at 500 g/h) | PRE Application IPOHE, percentage damage on five-point scale ([5]; applied) | POST Application AMARE, percentage damage on five-point scale ([6]; applied at 500 g/h) | POST Application SETFA, percentage damage on five-point scale ([7]; applied at 500 g/h) | POST Application ECHCG, percentage damage on five-point scale ([8]; applied at 500 g/h) | POST Application ABUTH, percentage damage on five-point scale ([9]; applied at 500 g/h) | POST Application IPOHE, percentage damage on five-point scale ([10]; applied at 500 g/h) | PRE Application AMARE, percentage damage on five-point scale ([1]; applied at 125 g/ha) | PRE Application SETFA, percentage damage on five-point scale ([2]; applied at 125 g/ha) | PRE Application ECHCG, percentage damage on five-point scale ([3]; applied at 125 g/ha) | PRE Application ABUTH, percentage damage on five-point scale ([4]; applied at 125 g/ha) | PRE Application IPOHE, percentage damage on five-point scale ([5]; applied at 125 g/ha) | POST Application AMARE, percentage damage on five-point scale ([6]; applied at 125 g/ha) | POST Application SETFA, percentage damage on five-point scale ([7]; applied at 125 g/ha) | POST Application ECHCG, percentage damage on five-point scale ([8]; applied at 125 g/ha) | POST Application ABUTH, percentage damage on five-point scale ([9]; applied at 125 g/ha) | POST Application IPOHE, percentage damage on five-point scale ([10]; applied at 125 g/ha)
CCn1nnnc1NC(=O)c1ccc(OC(F)(F)F)c(NC(=O)C2CCC2)c1Cl [Compound 1.111] | 5 (5=80-100%) | 1 (1=0-19%) | 4 (4=60-79%) | 4 (4=60-79%) | 1 (1=0-19%) | 5 (5=80-100%) | 1 (1=0-19%) | 5 (5=80-100%) | 5 (5=80-100%) | 5 (5=80-100%) | – | – | – | – | – | – | – | – | – | –
CN(C(=O)CC1CC1)c1c(OC(F)F)ccc(C(=O)Nc2nnnn2C)c1Cl [Compound 1.037] | – | – | – | – | – | – | – | – | – | – | 5 (5=80-100%) | 4 (4=60-79%) | 5 (5=80-100%) | 5 (5=80-100%) | 4 (4=60-79%) | 5 (5=80-100%) | 5 (5=80-100%) | 5 (5=80-100%) | 5 (5=80-100%) | 4 (4=60-79%)
COc1ccc(C(=O)Nc2nnnn2C)c(Cl)c1NC(=O)C(C)F (stereo not drawn) [Compound 1.028, 2-chloro-3-(2-fluoropropanoylamino)-4-methoxy-N-(1-methyltetrazol-5-yl)benzamide] | 5 (5=80-100%) | 3 (3=40-59%) | 4 (4=60-79%) | 5 (5=80-100%) | 3 (3=40-59%) | 5 (5=80-100%) | 4 (4=60-79%) | 3 (3=40-59%) | 5 (5=80-100%) | 4 (4=60-79%) | – | – | – | – | – | – | – | – | – | –
Cn1nnnc1NC(=O)c1ccc(OC(F)F)c(NC(=O)c2nc(Cl)ccc2Cl)c1Cl [Compound 1.088] | – | – | – | – | – | – | – | – | – | – | 5 (5=80-100%) | 5 (5=80-100%) | – | 4 (4=60-79%) | 4 (4=60-79%) | 4 (4=60-79%) | 4 (4=60-79%) | 3 (3=40-59%) | 4 (4=60-79%) | 4 (4=60-79%)
CC(=O)N(C)c1c(OC(F)(F)F)ccc(C(=O)Nc2nnnn2C)c1Cl [Compound 1.003] | 5 (5=80-100%) | 5 (5=80-100%) | 5 (5=80-100%) | 5 (5=80-100%) | 1 (1=0-19%) | 5 (5=80-100%) | – | 5 (5=80-100%) | 5 (5=80-100%) | 5 (5=80-100%) | – | – | – | – | – | – | – | – | – | –
Cn1nnnc1NC(=O)c1ccc(OC(F)(F)F)c(NC(=O)C2(F)CC2)c1Cl [Compound 1.054] | – | – | – | – | – | – | – | – | – | – | 5 (5=80-100%) | 5 (5=80-100%) | 5 (5=80-100%) | 5 (5=80-100%) | 4 (4=60-79%) | 5 (5=80-100%) | 5 (5=80-100%) | – | 5 (5=80-100%) | 5 (5=80-100%)
Cc1ncc(C(=O)Nc2c(OC(F)(F)F)ccc(C(=O)Nc3nnnn3C)c2Cl)s1 [Compound 1.010] | 5 (5=80-100%) | 2 (2=20-39%) | 1 (1=0-19%) | 5 (5=80-100%) | 2 (2=20-39%) | – | 5 (5=80-100%) | 5 (5=80-100%) | 5 (5=80-100%) | 5 (5=80-100%) | – | – | – | – | – | – | – | – | – | –
CCn1nnnc1NC(=O)c1ccc(OC(F)(F)F)c(NC(=O)C(C)(C)C)c1Cl [Compound 1.106] | 5 (5=80-100%) | 5 (5=80-100%) | 5 (5=80-100%) | 5 (5=80-100%) | – | 5 (5=80-100%) | 5 (5=80-100%) | 5 (5=80-100%) | 5 (5=80-100%) | 5 (5=80-100%) | – | – | – | – | – | – | – | – | – | –
CCC(C)C(=O)Nc1c(OC(F)(F)F)ccc(C(=O)Nc2nnnn2C)c1Cl (stereo not drawn) [Compound 1.055] | – | – | – | – | – | – | – | – | – | – | 5 (5=80-100%) | – | 5 (5=80-100%) | 5 (5=80-100%) | 4 (4=60-79%) | 5 (5=80-100%) | 5 (5=80-100%) | 5 (5=80-100%) | 5 (5=80-100%) | 4 (4=60-79%)
Cn1nnnc1NC(=O)c1ccc(OC(F)F)c(NC(=O)c2cc(Cl)ccn2)c1Cl [Compound 1.086] | – | – | – | – | – | – | – | – | – | – | 5 (5=80-100%) | 4 (4=60-79%) | – | 5 (5=80-100%) | 4 (4=60-79%) | 5 (5=80-100%) | 4 (4=60-79%) | 4 (4=60-79%) | 4 (4=60-79%) | 5 (5=80-100%)
Cn1nnnc1NC(=O)c1ccc(OC(F)F)c(NC(=O)c2ncc(Cl)cc2Cl)c1Cl [Compound 1.087] | – | – | – | – | – | – | – | – | – | – | 5 (5=80-100%) | 4 (4=60-79%) | 1 (1=0-19%) | 4 (4=60-79%) | 4 (4=60-79%) | 4 (4=60-79%) | 4 (4=60-79%) | – | 4 (4=60-79%) | 4 (4=60-79%)
Cn1nnnc1NC(=O)c1ccc(OC(F)F)c(NC(=O)c2cccc(Cl)n2)c1Cl [Compound 1.083] | – | – | – | – | – | – | – | – | – | – | 5 (5=80-100%) | 4 (4=60-79%) | – | 5 (5=80-100%) | 3 (3=40-59%) | 4 (4=60-79%) | 4 (4=60-79%) | 2 (2=20-39%) | 4 (4=60-79%) | 4 (4=60-79%)
Cn1nnnc1NC(=O)c1ccc(OC(F)F)c(NC(=O)c2ncc(F)cc2F)c1Cl [Compound 1.089] | – | – | – | – | – | – | – | – | – | – | 5 (5=80-100%) | 3 (3=40-59%) | – | 2 (2=20-39%) | 3 (3=40-59%) | 4 (4=60-79%) | 4 (4=60-79%) | 2 (2=20-39%) | 3 (3=40-59%) | 3 (3=40-59%)
COc1cccc(C(=O)Nc2c(OC(F)F)ccc(C(=O)Nc3nnnn3C)c2Cl)n1 [Compound 1.085] | – | – | – | – | – | – | – | – | – | – | 4 (4=60-79%) | 3 (3=40-59%) | – | 5 (5=80-100%) | 3 (3=40-59%) | 4 (4=60-79%) | 4 (4=60-79%) | 4 (4=60-79%) | 4 (4=60-79%) | 4 (4=60-79%)
